Measurements taken from ChEMBL document CHEMBL1201862, “PubChem BioAssay data set” (2004).
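Following 48 hours of exposure in 96-well plates, responses at five concentrations were used to interpolate endpoints linearly. The concentration for 50% growth inhibition is given as GI50.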 The source made the active and inactive calls. Rule as the data show it: active = GI50 up to about 1.1 µM and inactive = higher.

Columns and labels:
Experiment in all cases: growth of human tumour cells (NCI), 48 h
786-0 = tested on: 786-0
A498 = tested on: A498
ACHN = tested on: ACHN
CAKI-1 = tested on: CAKI-1
DLD-1 = tested on: DLD-1
DMS-114 = tested on: DMS-114
HL-60 = tested on: HL-60
HOP-92 = tested on: HOP-92
KM-20L2 = tested on: KM-20L2
KM12 = tested on: KM12
Malme-3M = tested on: Malme-3M
NCI-H522 = tested on: NCI-H522
SK-OV-3 = tested on: SK-OV-3
SNB-78 = tested on: SNB-78
TK-10 = tested on: TK-10
DU-145 = tested on: DU-145
MDA-MB-435 = tested on: MDA-MB-435
MDA-N = tested on: MDA-N
NCI/ADR-RES = tested on: NCI/ADR-RES
PC-3 = tested on: PC-3

Measured: GI50

NC(=O)c1csc(C2O[C@@H](COP(=O)(O)OP(=O)(O)OC[C@H]3OC(n4cnc5c(N)ncnc54)[C@H](O)[C@@H]3O)[C@H](O)[C@@H]2O)n1 (stereo not given in full)
inactive: 786-0 57.1 µM | A498 > 100 µM | ACHN > 100 µM | CAKI-1 97.9 µM | DLD-1 45.2 µM | DMS-114 > 100 µM | HL-60 67.3 µM | HOP-92 > 100 µM | KM-20L2 > 100 µM | KM12 88.1 µM | Malme-3M > 100 µM | NCI-H522 52.8 µM | SK-OV-3 > 100 µM | SNB-78 > 100 µM | TK-10 > 100 µM

CC(C)(C)[Si](OC1CCOC1=O)(c1ccccc1)c1ccccc1 (stereo not given)
inactive: A498 25.3 µM | ACHN 19.1 µM | DLD-1 22.2 µM | HL-60 14.4 µM | HOP-92 > 10 µM | KM-20L2 14.5 µM | KM12 > 10 µM | Malme-3M 16.5 µM | NCI-H522 13.8 µM | SK-OV-3 33.9 µM | SNB-78 32.2 µM | TK-10 22.5 µM

NC(=S)N/N=C1\CC(c2ccccc2)Nc2ccccc21 (stereo not given)
inactive: A498 18.5 µM | ACHN 46.3 µM | CAKI-1 66.7 µM | DLD-1 35.2 µM | DMS-114 23.4 µM | HL-60 11 µM | HOP-92 16.4 µM | KM-20L2 18.5 µM | Malme-3M 27.6 µM | NCI-H522 25.2 µM | SK-OV-3 39.1 µM | SNB-78 68.9 µM | TK-10 71.8 µM

COc1c(Cl)cc(Cl)cc1S(=O)O
inactive: A498 > 100 µM | ACHN > 100 µM | DLD-1 > 100 µM | DMS-114 > 100 µM | HL-60 > 100 µM | KM12 > 100 µM | Malme-3M > 100 µM | NCI-H522 > 100 µM | SK-OV-3 > 100 µM | SNB-78 > 100 µM | TK-10 > 100 µM

O=P(CCOc1ccccc1OCCP(=O)(c1ccccc1)c1ccc2c(c1)OCCOCCOCCOCCO2)(c1ccccc1)c1ccc2c(c1)OCCOCCOCCOCCO2 (stereo not given)
inactive: 786-0 > 100 µM | A498 > 100 µM | ACHN > 100 µM | DLD-1 > 100 µM | DMS-114 > 100 µM | HL-60 > 100 µM | HOP-92 > 100 µM | KM-20L2 > 100 µM | Malme-3M > 100 µM | NCI-H522 > 100 µM | SK-OV-3 > 100 µM | SNB-78 > 100 µM | TK-10 > 100 µM

CON(C)C(=O)C(Cc1ccccc1)NC(=O)OCc1ccccc1 (stereo not given)
inactive: A498 > 100 µM | ACHN > 100 µM | CAKI-1 > 100 µM | DLD-1 > 100 µM | DMS-114 58.9 µM | HL-60 > 100 µM | HOP-92 > 100 µM | KM-20L2 > 100 µM | KM12 > 100 µM | Malme-3M 75.5 µM | NCI-H522 58.6 µM | SK-OV-3 > 100 µM | SNB-78 > 100 µM | TK-10 > 100 µM

O=CN1CCC23CC(O)CCC2C1Cc1cc(Oc2nnnn2-c2ccccc2)cc(O)c13 (stereo not given)
inactive: 786-0 > 100 µM | A498 68.4 µM | ACHN > 100 µM | CAKI-1 > 100 µM | DU-145 > 100 µM | HL-60 52.1 µM | HOP-92 44.7 µM | KM12 57.9 µM | MDA-MB-435 66.7 µM | MDA-N > 100 µM | Malme-3M > 100 µM | NCI-H522 91.4 µM | NCI/ADR-RES > 100 µM | PC-3 > 100 µM | SK-OV-3 > 100 µM | TK-10 > 100 µM

O=[N+]([O-])C(/C=C(\Cl)[N+](=O)[O-])=C1Nc2ccccc2N1
inactive: 786-0 52.4 µM | A498 24.8 µM | ACHN 44.4 µM | CAKI-1 22.1 µM | DU-145 > 100 µM | HL-60 45.8 µM | HOP-92 18.3 µM | KM12 > 100 µM | MDA-MB-435 42.6 µM | MDA-N 59.8 µM | Malme-3M 42.2 µM | NCI-H522 > 100 µM | NCI/ADR-RES > 100 µM | PC-3 46.3 µM | SK-OV-3 42.4 µM | TK-10 > 100 µM

COc1ccc(C2=NN(c3nsc4ccccc34)C(=O)CC2)cc1
inactive: ACHN > 100 µM | DMS-114 58.5 µM | HL-60 39.4 µM | HOP-92 92 µM | KM-20L2 > 100 µM | KM12 > 100 µM | SNB-78 > 100 µM | TK-10 > 100 µM

COC(=O)C(=O)C(C(C)=O)C(=O)C(=O)Nc1ccc(C)cc1C (stereo not given)
inactive: A498 > 100 µM | ACHN > 100 µM | CAKI-1 > 100 µM | DLD-1 > 100 µM | DMS-114 > 100 µM | HL-60 > 100 µM | HOP-92 > 100 µM | KM-20L2 > 100 µM | KM12 > 100 µM | NCI-H522 > 100 µM | SK-OV-3 > 100 µM | TK-10 > 100 µM

COc1cccc(CC(C)N)c1 (stereo not given)
inactive: 786-0 > 100 µM | A498 > 100 µM | ACHN > 100 µM | CAKI-1 > 100 µM | DLD-1 > 100 µM | DMS-114 > 100 µM | HL-60 > 100 µM | HOP-92 > 100 µM | KM-20L2 > 100 µM | KM12 > 100 µM | Malme-3M > 100 µM | NCI-H522 > 100 µM | SK-OV-3 > 100 µM | SNB-78 > 100 µM | TK-10 > 100 µM
